Source: US11517617B2, “Methods and compositions for preventing influenza infection” (THE UNIVERSITY OF MELBOURNE, priority 2017, dated 2022)
No end group written: not given here.

Assays:
CD8^+ T cells = format: cell-based, human
[1] = test system: memory CD8^+ T cells within PBMCs; format: cell-based, human

| Sequence | additional low avidity CD8^+ T cells detected by Q115E staining (CD8^+ T cells) | cross-reactivity of CD8^+ T cells after in vitro expansion with the peptide [1] | recognition of IBV-derived variant by IAV-expanded CD8^+ T cells [1] |
| --- | --- | --- | --- |
| GILGFVFVL [M158-66, GILGFVFVL, reference compound] | could be detected | – | – |
| VADGGPNIY (Influenza B virus) [BPB1590-598, IBV variant of PB1591-599] | – | could not expand CD8^+ T cells | to a lesser extent |
| VSDGGPNLY (Influenza A virus) [PB1591-599] | – | recognizing both IAV- and IBV-derived peptides | – |
